Six molecules from the NIST ThermoML archive (doi:10.1016/j.fluid.2007.08.001) can be followed below.

Usually mass density stands for mass per unit of volume. By vapor or sublimation pressure is commonly meant the equilibrium pressure above the liquid or solid.

± gives the expanded uncertainty stated by the source.

The conditions of this data set: Liquid; for mass density: 303.15 K, 95.3 kPa, Pycnometric method.

With `O=[N+]([O-])c1ccccc1` [nitrobenzene], the mass density amounted to 1193.4 ± 1.3 kg/m3. Moreover, for the setting “483.05 K”, the “vapor or sublimation pressure” value came out at 95.3 ± 1.9 kPa.
In the case of `CCc1ccccc1` [ethylbenzene], the mass density is given as 858.2 ± 0.86 kg/m3. Besides, where the note is “406.95 K”, the “vapor or sublimation pressure” value stood at 95.3 ± 1.9 kPa.
`Cc1ccccc1` [toluene]: the mass density is recorded as 857.66 ± 0.86 kg/m3. Moreover, the “vapor or sublimation pressure” value (381.65 K) is recorded as 95.3 ± 1.9 kPa.
Take `Clc1ccccc1` [chlorobenzene]: the mass density is 1095.52 ± 1.1 kg/m3. For the same molecule, the “vapor or sublimation pressure” value (402.35 K) is 95.3 ± 1.9 kPa.
Take `Brc1ccccc1` [bromobenzene]: the mass density is on record as 1481.48 ± 1.7 kg/m3. Moreover, for the setting “426.85 K”, the “vapor or sublimation pressure” value turned out to be 95.3 ± 1.9 kPa.
Consider `C[S+](C)[O-]` [dimethyl sulfoxide], for which the mass density is listed as 1092.4 ± 1.1 kg/m3. Moreover, the “vapor or sublimation pressure” value (460.95 K) was 95.3 ± 1.9 kPa.
